# Test results from patent US20240217936A1, “5-BENZY[…] AND PREPARATION METHOD THEREFOR AND USE THEREOF” (WEST CHINA HOSPITAL, SICHUAN UNIVERSITY, priority 2021, published 2024).
# Where a name gives a salt, the structure may show the parent alone.
# Tests used:
# Male SD rats [1] = experiment: Sedative and hypnotic effects after oral administration (gavage, righting reflex); assay type: in vivo, rat; set-up: key to Onset time / Duration: —: Disappearance of righting reflex was not observed; conditions: for Onset time / Duration: gavage, 0.16 μmoL/kg; for Onset time: disappearance of righting reflex; for Duration: until recovery of righting reflex
# Description: Each test drug was administered by gavage, at a dosage of 0.16 μmoL/kg for each drug. After gavage, the disappearance of the righting reflex was used as a sign of the hypnotic effect induced by the drug, and the recovery of the righting reflex was used as a sign of drug failure. The onset time and duration of the drug were observed.
# Male SD rats [2] = experiment: Blood pressure change after tail vein injection (mean arterial pressure); conditions: dosage 2× ED50, injection within 15 seconds, 60 min recording, rats under isoflurane
# Description: Male SD rats weighing 250-300 g were randomly divided into groups, with 10 rats in each group. General anesthesia was maintained by inhaling isoflurane. By intubating via femoral artery, blood pressure was monitored using the BL-420N biological signal collection and analysis system. minutes after blood pressure stabilization, the baseline mean arterial pressure (MAP0) was measured. Subsequently, the physiological saline solution of each test drug was injected via the tail vein (the dosage of each drug was the same as that in Experiment example 2, with a unified injection […] volume of 1 mL). […] All prodrug molecules were injected within 15 seconds. After injection of each drug, the change in blood pressure was continuously recorded for 60 min. […] The difference MAPΔ+ between the baseline mean arterial pressure (MAP0) and the highest mean arterial pressure (MAPmax) during the 60 min measurement time was calculated; the difference MAPΔ− between the baseline mean arterial pressure (MAP0) and the lowest mean arterial pressure (MAPmin) during the 60 min measurement time was also obtained; both of the difference values were used to calculate the maximum increase rate of mean arterial pressure +Δ%=MAPΔ+/MAP0*100% and the maximum decrease rate of mean arterial pressure −Δ%=MAPΔ−/MAP0*100%, respectively. The maximum increase rate of mean arterial pressure +Δ% and the maximum decrease rate −Δ% reflect the degree of blood pressure change that the body experienced after administration. The larger the value, the greater the blood pressure change that the body experienced.
# Male SD rats [3] = experiment: Hypnotic effect after tail vein injection (loss of righting reflex); assay type: in vivo, rat; conditions: for ED50: Rattus norvegicus, 50% of the dose for the disappearance of righting reflex in rats, tail vein injection; for Onset time: tail vein injection of 2× ED50, loss of righting reflex; for Onset time / Duration: rats; for Duration: tail vein injection of 2× ED50, until recovery of righting reflex
# Description: Male SD rats, weighing 250-300 g, were randomly divided into groups, with 10 rats in each group. […] The onset times and the duration of hypnosis were recorded.
# [4] = Degradation of prodrug in rat plasma (release of dexmedetomidine, HPLC); assay type: in vitro ADME; conditions: 37° C.
# Description: The test prodrug was formulated as a 1 mg/mL of physiological saline solution, and then 100 μL of the prodrug solution was added to 900 μL of rat plasma. The test solution was vortexed for 30 s before incubation at 37° C. 50 μL of drug-containing plasma was collected at 0.5 min, 1 min, 2 min, 3 min, 5 min, 10 min, 15 min, 20 min, 30 min, and 60 min, respectively, to which was immediately added 150 μL of acetonitrile to terminate the enzymatic reaction, followed by adding the solution of internal standard telmisartan in methanol (30 μL, 20 μg/mL). Then, the resultant solution was centrifuged at 20000 rpm and 4° C. for 10 min. 100 μL of the supernatant was injected for detection by HPLC, and the concentration of dexmedetomidine was determined by an internal standard method. The degradation rate of the prodrug was calculated based on the concentration of dexmedetomidine. The chromatographic conditions are: Swell XDB C18 column (150 mm×4.6 mm, 5 μm); column temperature 30° C.; using gradient elution (see Table 1), mobile phase A: methanol, mobile phase B: 0.1% trifluoroacetic acid in water, and mobile phase C: acetonitrile; detection wavelength: 220 nm; flow rate: 1.0 mL/min; injection volume: 30 μL; retention time: 4.7 minutes for dexmedetomidine and 6.7 minutes for internal standard telmisartan. The linear range of dexmedetomidine: 2.5-100 μg/mL. Instruments: Waters 2695 high-performance liquid chromatograph, Waters 2996 photodiode array detector.
SMILES,Onset time (Male SD rats [1]),Duration (Male SD rats [1]),+Δ % (The maximum increase rate of blood pressure) (Male SD rats [2]),−Δ % (The maximum decrease rate of blood pressure) (Male SD rats [2]) [%],ED50 (Male SD rats [3]) [mg/kg],Onset time (Male SD rats [3]) [min],Duration (Male SD rats [3]) [min],Degradation rate of prodrug % ([4]; 0.5 min) [%],Degradation rate of prodrug % ([4]; 1 min) [%],Degradation rate of prodrug % ([4]; 2 min) [%],Degradation rate of prodrug % ([4]; 3 min) [%],Degradation rate of prodrug % ([4]; 5 min) [%],Degradation rate of prodrug % ([4]; 10 min) [%],Degradation rate of prodrug % ([4]; 15 min) [%],Degradation rate of prodrug % ([4]; 20 min) [%],Degradation rate of prodrug % ([4]; 30 min) [%],Degradation rate of prodrug % ([4]; 60 min) [%],"hypnotic effect by oral administration (Male SD rats [1]; equimolar doses, oral)"
CC(=O)OCn1cnc([C@@H](C)c2cccc(C)c2C)c1 [Compound 1-HCl],15 ± 6 min,17 ± 8 min,*25 ± 12%,43 ± 10,0.035,3.9 ± 1.5,42 ± 9,33,68,95,100,,,,,,,
Cc1cccc([C@H](C)c2cn(C(=O)OCC(C)C)cn2)c1C [Compound 4-HCl],14 ± 8 min,20 ± 13 min,34 ± 14%,38 ± 9,0.038,2.3 ± 0.9,44 ± 8,31,86,97,100,100,,,,,,
Cc1cccc([C@H](C)c2cn(COC(=O)OC(C)C)cn2)c1C [Compound 7],9 ± 4 min,22 ± 8 min,,,,,,,,,,,,,,,,
CCC(=O)OCn1cnc([C@@H](C)c2cccc(C)c2C)c1 [Compound 10],13 ± 6 min,15 ± 7 min,,,,,,,,,,,,,,,,
"Cc1cccc([C@H](C)c2cn(COP(=O)(OC(C)(C)C)OC(C)(C)C)cn2)c1C [Compound 12, (S)-(4-(1-(2,3-dimethylphenyl)ethyl)-1H-imidazo-1-yl)methyl di-tert-butyl phosphate]",16 ± 7 min,11 ± 4 min,,,,,,,,,,,,,,,,
COC(=O)OCn1cnc([C@@H](C)c2cccc(C)c2C)c1 [Compound 13],11 ± 5 min,21 ± 9 min,,,,,,,,,,,,,,,,
CC(=O)OC(C)n1cnc([C@@H](C)c2cccc(C)c2C)c1 (stereo partly shown) [Compound 17],23 ± 5 min,9 ± 4 min,,,,,,,,,,,,,,,,
COC(=O)COC(=O)OCn1cnc([C@@H](C)c2cccc(C)c2C)c1 [Compound 23-HCl],,,29 ± 7%,35 ± 8,0.051,1.7 ± 0.4,61 ± 15,23,,,,25,27,28,29,31,34,
COC(=O)COC(=O)OCn1cnc([C@@H](C)c2cccc(C)c2C)c1 [Compound 23],28 ± 5 min,8 ± 2 min,,,,,,,,,,,,,,,,
CCOC(=O)COC(=O)OCn1cnc([C@@H](C)c2cccc(C)c2C)c1 [Compound 24-HCl],,,*27 ± 12%,,0.03,1.3 ± 0.4,47 ± 7,18,21,24,27,31,33,36,37,38,41,
COC(=O)CCC(=O)OCn1cnc([C@@H](C)c2cccc(C)c2C)c1 [Compound 25-HCl],,,31 ± 14%,37 ± 7,0.041,3.1 ± 0.9,63 ± 15,51,56,59,64,67,68,69,72,76,79,
Cc1cccc([C@H](C)c2cn(COP(=O)(O)O)cn2)c1C [Compound 26],,,*15 ± 8%,36 ± 8,0.032,1.7 ± 0.3,46 ± 5,29,31,32,33,34,35,37,38,43,56,
CCOC(=O)CCC(=O)OCn1cnc([C@@H](C)c2cccc(C)c2C)c1 [Compound 27-HCl],,,*25 ± 13%,41 ± 9,0.019,1.4 ± 0.5,52 ± 9,52,58,66,,78,86,97,100,,,
"Cc1cccc([C@H](C)c2c[nH]cn2)c1C.Cl [Dexmedetomidine hydrochloride, reference compound]",—,—,,,0.018,1.5 ± 0.5,53 ± 11,,,,,,,,,,,could not produce a hypnotic effect
